Test results taken from PMC7180948, “New Insights into 4-Anilinoquinazolines as Inhibitors of Cardiac Troponin I–Interacting Kinase (TNNi3K)” (Molecules, 2020).

Experiments:
Assay in all cases: biochemical
Set-up in all cases: KINOMEscan competition binding panel (Eurofins DiscoverX), single concentration, percent inhibition
Conditions in all cases: read-out: 15 at 1 µM % inhibition
ADCK3 = target: T1, ADCK3 (Homo sapiens, UniProt Q8NI60)
T1 construct: gene COQ8A
In short: (§1)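 Binding was profiled in the KINOMEscan panel of over 400 human kinases, with each compound tested at a single concentration of 1 µM to map selectivity.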

ASK1 = target: T2, ASK1 (Homo sapiens, UniProt Q99683)
T2 construct: gene MAP3K5
In short: as §1

EPHA1 = EPHA1 (Homo sapiens, UniProt P21709)
EPHA1, sequence (P21709 whole entry): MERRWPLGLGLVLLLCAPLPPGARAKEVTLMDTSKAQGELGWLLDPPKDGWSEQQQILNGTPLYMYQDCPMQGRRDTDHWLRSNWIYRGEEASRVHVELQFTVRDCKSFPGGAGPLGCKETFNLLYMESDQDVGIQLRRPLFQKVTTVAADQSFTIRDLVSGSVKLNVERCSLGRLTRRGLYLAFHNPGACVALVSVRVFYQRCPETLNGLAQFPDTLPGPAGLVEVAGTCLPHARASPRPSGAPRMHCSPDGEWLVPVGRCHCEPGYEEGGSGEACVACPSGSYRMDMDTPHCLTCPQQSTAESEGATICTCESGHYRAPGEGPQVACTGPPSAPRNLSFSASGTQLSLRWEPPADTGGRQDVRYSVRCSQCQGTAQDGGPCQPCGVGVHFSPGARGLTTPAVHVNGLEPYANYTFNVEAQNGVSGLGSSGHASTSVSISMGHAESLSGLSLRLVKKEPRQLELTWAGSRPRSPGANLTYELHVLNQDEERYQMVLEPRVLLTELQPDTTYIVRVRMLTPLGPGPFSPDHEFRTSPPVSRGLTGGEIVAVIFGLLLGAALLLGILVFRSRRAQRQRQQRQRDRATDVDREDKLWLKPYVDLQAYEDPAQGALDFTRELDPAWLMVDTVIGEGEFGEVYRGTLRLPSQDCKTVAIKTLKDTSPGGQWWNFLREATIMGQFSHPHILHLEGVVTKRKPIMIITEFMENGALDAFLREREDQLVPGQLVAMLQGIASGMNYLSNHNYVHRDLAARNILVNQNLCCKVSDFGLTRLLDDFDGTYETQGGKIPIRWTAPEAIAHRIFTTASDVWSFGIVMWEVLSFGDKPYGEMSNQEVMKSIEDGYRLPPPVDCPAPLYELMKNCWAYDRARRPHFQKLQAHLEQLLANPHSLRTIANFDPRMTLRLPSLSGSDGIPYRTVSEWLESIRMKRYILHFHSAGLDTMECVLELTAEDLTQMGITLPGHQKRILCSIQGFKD
In short: as §1

ERK3 = target: T3, ERK3 (Homo sapiens, UniProt Q16659)
T3 construct: gene MAPK6
In short: as §1

FLT4 = FLT4 (Homo sapiens, UniProt P35916)
FLT4, sequence (P35916 whole entry): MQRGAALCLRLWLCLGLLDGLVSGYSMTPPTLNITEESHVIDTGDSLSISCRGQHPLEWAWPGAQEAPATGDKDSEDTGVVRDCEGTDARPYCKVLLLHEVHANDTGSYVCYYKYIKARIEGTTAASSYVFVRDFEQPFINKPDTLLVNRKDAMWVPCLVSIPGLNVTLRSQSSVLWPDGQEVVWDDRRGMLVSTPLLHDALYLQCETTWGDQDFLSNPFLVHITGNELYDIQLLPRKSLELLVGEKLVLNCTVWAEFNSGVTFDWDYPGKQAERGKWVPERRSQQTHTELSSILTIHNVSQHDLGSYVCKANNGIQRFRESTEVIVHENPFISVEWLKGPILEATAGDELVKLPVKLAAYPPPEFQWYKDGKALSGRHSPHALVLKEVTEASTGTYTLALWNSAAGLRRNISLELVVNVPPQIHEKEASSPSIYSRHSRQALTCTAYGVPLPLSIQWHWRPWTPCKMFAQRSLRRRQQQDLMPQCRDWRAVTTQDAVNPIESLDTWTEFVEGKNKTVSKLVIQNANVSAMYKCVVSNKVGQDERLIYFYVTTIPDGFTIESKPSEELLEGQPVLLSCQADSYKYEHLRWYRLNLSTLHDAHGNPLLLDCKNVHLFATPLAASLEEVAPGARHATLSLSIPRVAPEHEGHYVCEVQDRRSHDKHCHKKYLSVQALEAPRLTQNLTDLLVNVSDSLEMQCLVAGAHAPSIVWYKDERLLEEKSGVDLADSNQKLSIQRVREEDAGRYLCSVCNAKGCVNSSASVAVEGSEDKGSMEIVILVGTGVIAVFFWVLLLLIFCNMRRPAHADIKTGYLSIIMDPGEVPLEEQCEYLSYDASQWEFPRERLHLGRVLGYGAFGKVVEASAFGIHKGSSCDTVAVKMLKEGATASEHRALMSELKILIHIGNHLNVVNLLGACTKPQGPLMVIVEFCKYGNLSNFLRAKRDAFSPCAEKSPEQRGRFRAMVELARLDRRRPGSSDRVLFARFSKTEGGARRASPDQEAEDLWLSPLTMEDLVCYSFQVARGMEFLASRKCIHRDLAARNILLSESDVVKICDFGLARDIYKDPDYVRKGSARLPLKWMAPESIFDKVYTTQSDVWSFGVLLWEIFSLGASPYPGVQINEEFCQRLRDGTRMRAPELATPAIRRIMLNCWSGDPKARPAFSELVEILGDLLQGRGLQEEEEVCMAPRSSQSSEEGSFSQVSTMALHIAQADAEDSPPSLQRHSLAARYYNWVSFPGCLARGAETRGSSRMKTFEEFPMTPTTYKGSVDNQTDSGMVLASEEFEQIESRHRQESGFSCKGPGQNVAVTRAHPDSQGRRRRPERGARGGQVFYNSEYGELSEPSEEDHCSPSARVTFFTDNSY
In short: as §1

ICK = target: T4, ICK (Homo sapiens, UniProt Q9UPZ9)
T4 construct: gene CILK1
In short: as §1

KIT-autoinhibited = KIT-autoinhibited (Homo sapiens, UniProt P10721)
In short: as §1

LATS2 = LATS2 (Homo sapiens, UniProt Q9NRM7)
In short: as §1

MEK4 = target: T5, MEK4 (Homo sapiens, UniProt P45985)
T5 construct: gene MAP2K4
T5 sequence (P45985 whole entry): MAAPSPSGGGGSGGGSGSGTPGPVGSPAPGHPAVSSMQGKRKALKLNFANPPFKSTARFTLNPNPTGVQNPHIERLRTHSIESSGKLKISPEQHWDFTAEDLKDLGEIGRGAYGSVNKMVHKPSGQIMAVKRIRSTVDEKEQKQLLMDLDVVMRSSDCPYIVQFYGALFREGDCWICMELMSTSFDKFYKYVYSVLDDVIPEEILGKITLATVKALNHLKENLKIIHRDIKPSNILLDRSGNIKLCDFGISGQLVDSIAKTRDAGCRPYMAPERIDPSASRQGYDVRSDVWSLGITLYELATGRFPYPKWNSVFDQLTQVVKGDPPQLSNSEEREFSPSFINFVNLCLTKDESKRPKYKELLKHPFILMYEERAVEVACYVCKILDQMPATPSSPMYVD
In short: as §1

MEK6 = target: T6, MEK6 (Homo sapiens, UniProt P52564)
T6 construct: gene MAP2K6
T6 sequence (P52564 whole entry): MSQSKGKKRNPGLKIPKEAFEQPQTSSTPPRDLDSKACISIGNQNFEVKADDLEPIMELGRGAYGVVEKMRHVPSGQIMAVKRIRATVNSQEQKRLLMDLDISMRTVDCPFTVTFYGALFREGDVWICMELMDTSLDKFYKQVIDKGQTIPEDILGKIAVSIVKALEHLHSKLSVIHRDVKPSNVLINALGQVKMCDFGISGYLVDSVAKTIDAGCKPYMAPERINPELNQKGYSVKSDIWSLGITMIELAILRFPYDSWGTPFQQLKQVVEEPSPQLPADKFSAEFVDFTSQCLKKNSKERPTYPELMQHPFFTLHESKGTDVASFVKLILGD
In short: as §1

NEK3 = NEK3 (Homo sapiens, UniProt P51956)
In short: as §1

NEK9 = NEK9 (Homo sapiens, UniProt Q8TD19)
In short: as §1

PIK3CD = PIK3CD (Homo sapiens, UniProt O00329)
In short: as §1

PRKCD = PRKCD (Homo sapiens, UniProt Q05655)
In short: as §1

RIPK1 = RIPK1 (Homo sapiens, UniProt Q13546)
In short: as §1

RIPK5 = target: T7, RIPK5 (Homo sapiens, UniProt Q6XUX3)
T7 construct: gene DSTYK
In short: as §1

[1] = target: T8, RPS6KA4(Kin.Dom.1-N-terminal) (Homo sapiens, UniProt O75676)
T8 construct: Kin.Dom.1-N-terminal
In short: as §1

[2] = target: T9, RSK4(Kin.Dom.2-C-terminal) (Homo sapiens, UniProt Q9UK32)
T9 construct: gene RPS6KA6; Kin.Dom.2-C-terminal
In short: as §1

SIK = target: T10, SIK (Homo sapiens, UniProt P57059)
T10 construct: gene SIK1
In short: as §1

TNK1 = TNK1 (Homo sapiens, UniProt Q13470)
In short: as §1

TSSK3 = TSSK3 (Homo sapiens, UniProt Q96PN8)
TSSK3, sequence (Q96PN8 whole entry): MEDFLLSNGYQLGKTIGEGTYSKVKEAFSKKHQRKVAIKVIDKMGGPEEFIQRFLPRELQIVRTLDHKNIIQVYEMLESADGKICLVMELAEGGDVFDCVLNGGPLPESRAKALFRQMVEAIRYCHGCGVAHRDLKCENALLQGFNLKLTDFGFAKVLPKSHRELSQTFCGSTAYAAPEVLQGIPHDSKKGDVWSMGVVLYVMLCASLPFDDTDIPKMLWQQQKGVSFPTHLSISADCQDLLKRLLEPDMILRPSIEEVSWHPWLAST
In short: as §1

TYRO3 = TYRO3 (Homo sapiens, UniProt Q06418)
In short: as §1

ULK1 = ULK1 (Homo sapiens, UniProt O75385)
ULK1, sequence (O75385 whole entry): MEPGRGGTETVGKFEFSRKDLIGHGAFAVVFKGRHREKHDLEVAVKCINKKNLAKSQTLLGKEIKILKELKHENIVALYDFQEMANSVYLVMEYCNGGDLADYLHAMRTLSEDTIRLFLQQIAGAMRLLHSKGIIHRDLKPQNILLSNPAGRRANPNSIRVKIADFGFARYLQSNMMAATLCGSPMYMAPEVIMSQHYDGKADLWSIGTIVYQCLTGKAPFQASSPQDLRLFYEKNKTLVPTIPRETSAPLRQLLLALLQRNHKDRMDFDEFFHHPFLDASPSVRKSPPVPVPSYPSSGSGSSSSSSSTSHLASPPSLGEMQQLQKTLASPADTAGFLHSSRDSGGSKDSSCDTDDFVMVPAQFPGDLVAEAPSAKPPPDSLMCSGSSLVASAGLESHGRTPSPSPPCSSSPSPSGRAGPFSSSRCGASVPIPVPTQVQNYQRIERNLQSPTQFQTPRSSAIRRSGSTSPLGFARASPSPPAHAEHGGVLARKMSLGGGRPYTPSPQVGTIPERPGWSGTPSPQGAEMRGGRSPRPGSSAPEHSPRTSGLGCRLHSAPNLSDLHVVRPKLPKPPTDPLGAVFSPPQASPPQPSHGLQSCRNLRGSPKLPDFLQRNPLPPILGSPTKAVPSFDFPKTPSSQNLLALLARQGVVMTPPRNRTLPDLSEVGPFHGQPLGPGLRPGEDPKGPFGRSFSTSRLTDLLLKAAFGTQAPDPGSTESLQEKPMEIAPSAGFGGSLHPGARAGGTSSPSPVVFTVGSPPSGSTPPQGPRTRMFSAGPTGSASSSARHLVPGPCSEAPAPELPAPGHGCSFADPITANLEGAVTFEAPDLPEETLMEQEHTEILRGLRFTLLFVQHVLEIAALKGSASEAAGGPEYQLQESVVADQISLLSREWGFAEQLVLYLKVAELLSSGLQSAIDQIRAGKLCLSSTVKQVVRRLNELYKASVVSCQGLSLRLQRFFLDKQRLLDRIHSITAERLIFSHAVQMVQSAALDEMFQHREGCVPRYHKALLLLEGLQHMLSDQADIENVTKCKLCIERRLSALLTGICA
In short: as §1

YSK1 = target: T11, YSK1 (Homo sapiens, UniProt O00506)
T11 construct: gene STK25
T11 sequence (O00506 whole entry): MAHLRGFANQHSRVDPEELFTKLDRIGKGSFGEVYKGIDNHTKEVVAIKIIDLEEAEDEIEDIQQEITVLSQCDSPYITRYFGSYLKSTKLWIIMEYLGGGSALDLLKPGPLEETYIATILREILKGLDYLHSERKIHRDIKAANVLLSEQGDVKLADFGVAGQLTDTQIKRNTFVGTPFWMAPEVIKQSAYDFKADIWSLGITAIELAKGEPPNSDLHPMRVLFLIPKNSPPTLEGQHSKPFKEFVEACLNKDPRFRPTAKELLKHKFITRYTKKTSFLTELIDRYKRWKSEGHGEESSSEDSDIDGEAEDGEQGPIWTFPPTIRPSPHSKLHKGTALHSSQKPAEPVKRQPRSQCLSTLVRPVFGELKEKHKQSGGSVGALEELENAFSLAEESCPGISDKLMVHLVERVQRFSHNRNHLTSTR
In short: as §1

- inhibition at 1 µM (ADCK3): 9%
- inhibition at 1 µM (ASK1): 0%
- inhibition at 1 µM (EPHA1): 0%
- inhibition at 1 µM (ERK3): 18%
- inhibition at 1 µM (FLT4): 0%
- inhibition at 1 µM (ICK): 12%
- inhibition at 1 µM (KIT-autoinhibited): 19%
- inhibition at 1 µM (LATS2): 14%
- inhibition at 1 µM (MEK4): 25%
- inhibition at 1 µM (MEK6): 0%
- inhibition at 1 µM (NEK3): 0%
- inhibition at 1 µM (PIK3CD): 37%
- inhibition at 1 µM (PRKCD): 1%
- inhibition at 1 µM (RIPK1): 37%
- inhibition at 1 µM (RIPK5): 12%
- inhibition at 1 µM [1]: 3%
- inhibition at 1 µM [2]: 3%
- inhibition at 1 µM (SIK): 13%
- inhibition at 1 µM (TNK1): 35%
- inhibition at 1 µM (TSSK3): 28%
- inhibition at 1 µM (TYRO3): 0%
- inhibition at 1 µM (ULK1): 31%
- inhibition at 1 µM (YSK1): 13%
Compound: CNS(=O)(=O)c1ccc(N(C)C)c(Nc2nc(C)nc3cc(OC)c(OC)cc23)c1 [compound 15, 3-((6,7-dimethoxy-2-methylquinazolin-4-yl)amino)-4-(dimethylamino)-N-methylbenzenesulfonamide]
- inhibition at 1 µM (NEK9): 0%
